We go through one compound from patent US8815953B2, “Formulations of vitamin K analogs for topical use” (Spectrum Pharmaceuticals, Inc., priority 2008, dated 2014).

A short description of data set [1]: Estimated solubility of menadione in single solvents. The class given is physicochemical. On the procedure: This study focused on evaluating the solubility properties of menadione in hydrophilic and lipophilic excipients used in topical pharmaceutical products. Initially, solubility studies were conducted in single solvents.
Data set [2] is described as follows: Menadione compatibility with single solvent systems (1% w/w solutions, 1 month storage). The class given is physicochemical. How it is done: Based on the single solvent solubility data, a menadione compatibility study with selected solvents was conducted. Solutions containing 1% w/w of menadione were prepared, packaged in borosilicate clear glass vials, wrapped in aluminum foil and stored at 5° C. (dark), 25° C. (dark), and 40° C. (dark) for a period of 1 month. The physico-chemical properties of the 1% menadione single solvent solutions are presented in: Table 2.

Data set [3] in a line: In vitro percutaneous absorption of (14C)-Menadione Study #2, abraded skin. It is filed as in vitro ADME, human. The following applies: abraded skin versus normal skin. On the procedure:
Percutaneous absorption of (^14C)-Menadione was also evaluated using abraded human skin in the lead formulation at 0.05, 0.1, and 0.2% Menadione and the backup formulation at 0.2% Menadione. Abraded skin was evaluated as a possible simulation of the type of broken and/or compromised skin that may be present in the case of a skin rash caused by an EGFR inhibitor. The respective skin permeation values are presented in: Table 18.

The next data set concerns EGFR-mediated signaling. The following applies: topical application, secondary to systemic erlotinib and cetuximab; cited from earlier work.
Data set [4] deals with EGFR and other growth factor-related phosphatase. The following applies: cited from earlier work.

Consider `CC1=CC(=O)c2ccccc2C1=O` [Menadione, 2-methyl-1,4-naphthoquinone], for which the “Estimated Solubility” value is given as “Greater than 10% w/w” in data set [1] (in Benzyl Alcohol); “Greater than 10% w/w” in data set [1] (in Dimethyl Isosorbide); “Less than 0.1% w/w” in data set [1] (in Mineral Oil); “Greater than 2% w/w” in data set [1] (in Polyethylene Glycol 400); “Less than 1% w/w” in data set [1] (in Propylene Glycol); “Less than 0.04% w/w” in data set [1] (in Purified Water). Further, in data set [2] (caprylic/capric triglyceride, diethyl sebacate, diisopropyl adipate, isopropyl myristate, 1 month at 5, 25, 40° C. dark), the “Compatibility of menadione with solvent (physical appearance and potency by HPLC)” value is given as “compatible”. For the same compound, in data set [2] (dimethyl isosorbide, transcutol and polyethylene glycol 400, all conditions evaluated), the “Compatibility of menadione with solvent (discoloration)” value was “signs of incompatibility”. Besides, in data set [3], the “Epidermal levels of the drug” value is on record as “lower”. Further, the “EGFR-mediated signaling in human skin” value in the data set on EGFR-mediated signaling is “restore EGFR-mediated signaling”. Besides, the EGF activating activity result in data set [4] is on record as “direct EGF activating activity”. For the same compound, the “EGFR and other growth factor-related phosphatase inhibitory activity” value in data set [4] is recorded as “inhibitory activity”.
